Source: patent US20260216168A1, “MODULATION OF PD-1 SIGNALING FOR TREATMENT OF DISEASES” (Wuhan University, priority 2023, published 2026)
Entries after “also recorded” stand apart in the source; their conditions may differ.

What was measured:
MARCH5 [1] = target: T1, MARCH5 (Homo sapiens, UniProt Q9NX47); experiment: MARCH5 / γc-luciferase reporter system in co-transfected HEK293 cells (screen of FDA-approved drugs); assay type: cell-based; conditions: HEK293 cells co-transfected with MARCH5 and γc-luciferase fusion protein; increase = MARCH5 inhibition
T1 construct: expressed in transfected cells; host or cells: HEK293
T1 sequence (Q9NX47 1-278): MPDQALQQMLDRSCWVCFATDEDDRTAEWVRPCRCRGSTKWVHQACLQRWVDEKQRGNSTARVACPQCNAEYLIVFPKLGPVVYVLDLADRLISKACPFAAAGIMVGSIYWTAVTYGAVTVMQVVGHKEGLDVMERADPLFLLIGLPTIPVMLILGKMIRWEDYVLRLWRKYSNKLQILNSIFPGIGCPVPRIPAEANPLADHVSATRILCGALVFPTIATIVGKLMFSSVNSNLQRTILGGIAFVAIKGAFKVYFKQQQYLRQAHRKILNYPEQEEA
Source text: Unfortunately, no pharmacological inhibitors of MARCH5 have been reported. We designed a reporter system in which HEK293 cells are co-transfected with two plasmids encoding MARCH5 and γc-luciferase fusion protein respectively. In this system, inhibition of MARCH5 by an inhibitor would result in increased luciferase activity in reporter assays.
Using this system, we screened a collection of Food and Drug Administration-approved drugs and identified 10 compounds that increased luciferase activity to more than 1.5-folds (Table 1). […] Pitavastatin is a unique lipophilic statin and potent inhibitor of HMG-CoA reductase with a strong effect on lowering plasma total cholesterol and triacylglycerol. Pitavastatin has also been reported to have pleiotropic beneficial effects such as suppression of inflammation, regulation of angiogenesis and osteogenesis, improvement of endothelial function and arterial stiffness.

γc [2] = experiment: γc degradation in Jurkat cells with degradation-route inhibitors (CHX chase or PD-L1 stimulation); assay type: cell-based, human
Method: PD-1-expressing Jurkat cells were pre-stimulated with PHA (50 ng/ml) for 36 h and then treated with CHX (0.1 mM) for the indicated times before immunoblotting analysis with the indicated antibodies. […] PD-1-expressing Jurkat cells were stimulated with PHA (50 ng/ml) in the presence of 2 μg/ml human PD-L1-Fc fusion protein or control (human IgG1) for 36 h, and then treated with MG132 ([…]), NH4Cl (25 mM) or 3-MA (500 ng/ml) for 12 h before immunoblotting analysis with the indicated antibodies. • (D) PD-1 ligation induces polyubiquitination of γc. PD-1-expressing Jurkat cells were stimulated with PHA (50 ng/ml) for the indicated times before co-immunoprecipitation and immunoblotting analysis with the indicated antibodies. • (E) MARCH5 promotes degradation of γc in a dose-dependent manner. HEK293 cells were transfected with the indicated plasmids for 24 h before immunoblot analysis with the indicated antibodies. • (F) Association of γc with MARCH5. […]
Cells were lysed in 1 ml of NP-40 lysis buffer (20 mM Tris-HCl, 150 mM NaCl, 1 mM EDTA, 10% Nonidet P-40, […] Triton X-100, […] aprotinin, 10 μg/ml leupeptin, and 1 mM phenylmethylsulfonyl fluoride, PMSF). […] The immunoprecipitants were analyzed by immunoblotting with the ubiquitin antibody.

MARCH5 [3] = target: T1, MARCH5; experiment: MARCH5-mediated degradation of γc in HEK293 cells; assay type: cell-based
Method: HEK293 cells were transfected by standard calcium phosphate precipitation. The empty control plasmid was added to ensure that each transfection receives the same amount of total DNA.
Cells were lysed in 1 ml of NP-40 lysis buffer (20 mM Tris-HCl, 150 mM NaCl, 1 mM EDTA, 10% Nonidet P-40, […] Triton X-100, […] aprotinin, 10 μg/ml leupeptin, and 1 mM phenylmethylsulfonyl fluoride, PMSF). For each immunoprecipitation reaction, a 0.4 ml aliquot of lysate was incubated with 0.5-2 μg of the indicated antibody or control IgG and 35 μL of a 1:1 slurry of Protein-G Sepharose (GE Healthcare) at 4° C. for 3 h. The Sepharose beads were washed three times with 1 ml of lysis buffer containing 500 mM NaCl. The precipitates were fractionated by SDS-PAGE, and immunoblotting analysis was performed with the indicated antibodies. For ubiquitination assays, the immunoprecipitants were re-extracted in NP-40 lysis buffer containing 1% SDS and denatured by heating for 10 min. The supernatants were diluted with regular lysis buffer until the concentration of SDS was decreased to 0.1%, following by re-immunoprecipitation with the indicated antibodies. The immunoprecipitants were analyzed by immunoblotting with the ubiquitin antibody.

γc [4] = experiment: Effects of other statin drugs on the γc level; assay type: cell-based; conditions: other HMG-CoA reductase inhibitor statins
Source text: Statin drugs, such as lovastatin, simvastatin, fluvastatin sodium and rosuvastatin calcium, are thought to target HMG-CoA reductase. Therefore, we examined the effects of these statin drugs on the γc level.

tumor = experiment: PC or rosuvastatin calcium alone or with IL-2 on tumor growth in mice; assay type: in vivo, mouse
Source text: We further tested the anti-tumor effects of PC in mouse MC38 colorectal carcinoma and B16F10 melanoma models.

Molecule	Rel. Luc. Act (MARCH5 [1])	also measured
O=C(/C=C/c1cccc(S(=O)(=O)Nc2ccccc2)c1)NO [Belinostat]	1.85	
Nc1ccccc1NC(=O)c1ccc(CNC(=O)OCc2cccnc2)cc1 [Entinostat]	1.60	
NC(=O)N1CCC(CC(=O)N2CCC([C@H]3c4ncc(Br)cc4CCc4cc(Cl)cc(Br)c43)CC2)CC1 [Lonafarnib]	2.88	
Nc1ccccc1NC(=O)c1ccc(CNc2nccc(-c3cccnc3)n2)cc1 [Mocetinostat]	1.83	
Cl.N [NH4Cl, ammonium chloride]		γc degradation after termination of protein synthesis by CHX (γc [2]; Jurkat cells, MG132 100 μM, NH4Cl 25 mM or 3-MA 500 ng/ml 4 h, then CHX 0.1 mM 2 h): markedly inhibited; also recorded: inhibits γc degradation; PD-L1-induced degradation of γc (γc [2]; PD-1-expressing Jurkat cells, PHA + PD-L1-Fc 36 h, then inhibitor 12 h): also inhibited; also recorded: inhibits PD-1 ligation-induced degradation of γc; MARCH5-mediated degradation of γc (MARCH5 [3]): inhibited MARCH5-mediated degradation of γc
CCCCc1nc2cc(/C=C/C(=O)NO)ccc2n1CCN(CC)CC [Pracinostat]	1.75	
O=P(O)(O)C(O)(Cc1cccnc1)P(=O)(O)O [Risedronate Sodium]	1.60	
Nc1cc(F)ccc1NC(=O)c1ccc(CNC(=O)/C=C/c2cccnc2)cc1 [Tucidinostat]	1.86	
O=C(CCCCCCC(=O)Nc1ccccc1)NO [Vorinostat]	1.58	
CC[C@H](C)C(=O)O[C@H]1C[C@@H](C)C=C2C=C[C@H](C)[C@H](CC[C@@H]3C[C@@H](O)CC(=O)O3)[C@H]21 [lovastatin]		γc level (γc [4]): up-regulated the level of γc
CC(C)c1nc(N(C)S(C)(=O)=O)nc(-c2ccc(F)cc2)c1/C=C/[C@@H](O)C[C@@H](O)CC(=O)[O-].CC(C)c1nc(N(C)S(C)(=O)=O)nc(-c2ccc(F)cc2)c1/C=C/[C@@H](O)C[C@@H](O)CC(=O)[O-].[Ca+2] [rosuvastatin calcium]		synergistic effect with IL-2 on tumor suppression (tumor; combined with IL-2, mice): no such synergism was observed; tumor growth (tumor; statin administered alone, mice): suppressed tumor growth; γc level (γc [4]): up-regulated the level of γc
Chidamide	1.59	
